{"source": "ChEMBL document CHEMBL4364294", "about": "(J Med Chem, 2019)", "key": {"[1]": {"assay": "Intrinsic clearance in human liver microsomes", "format": "ADME, Microsome", "settings": "read-out: CLH"}, "[2]": {"assay": "Aqueous solubility of the compound at pH 1", "format": "physicochemical"}, "[3]": {"assay": "Aqueous solubility of the compound at pH 6.5", "format": "physicochemical"}, "[4]": {"assay": "Aqueous solubility of the compound at pH 7.4", "format": "physicochemical"}}}
{"smiles": "OC(CC1c2ccccc2-c2cncn21)C1CCC(F)(F)CC1", "note": "(stereo unspecified)", "values": [{"measurement": "predicted hepatic clearance", "setting": "[1]", "value": 14.6, "unit": "mL/min/kg"}]}
{"smiles": "O[C@H](C[C@H]1c2c(F)cccc2-c2cncn21)[C@H]1CC[C@@H](O)CC1", "values": [{"measurement": "predicted hepatic clearance", "setting": "[1]", "value": 18.5, "unit": "mL/min/kg"}]}
{"smiles": "O=C(N[C@H]1CC[C@@H](C(O)CC2c3ccccc3-c3cncn32)CC1)c1ccccc1", "note": "(stereo partly specified)", "values": [{"measurement": "predicted hepatic clearance", "setting": "[1]", "value": 8.23, "unit": "mL/min/kg"}, {"measurement": "solubility", "setting": "[2]", "value": 400, "unit": "µM"}, {"measurement": "solubility", "setting": "[3]", "value": 65, "unit": "µM"}, {"measurement": "solubility", "setting": "[4]", "value": 56, "unit": "µM"}]}
